Measured values as given in patent US9580444B2, “Polycyclic pyrazolinone derivative and herbicide comprising same as effective component thereof” (priority 2013, dated 2017).

How the values were obtained:
Assay in all cases: Test Example-1: herbicidal effect by a treatment before weeds are generated under submerged conditions
Type in all cases: in vivo
Conditions in all cases: 500 g a.i/ha, pre-emergence treatment, about 15 days after treatment, score 0-5
[1] = tested on: Cyperus difformis (smallflower umbrella plant)
Protocol: (§1) Using the formulation prepared according to the methods described above, the herbicidal effect of the bicyclic pyrazolinone derivative of the invention according to the methods shown in Test Examples below was examined. The herbicidal effect with respect to the test weeds or the phytotoxicity with respect to the test crops was examined according to the following criteria, and evaluated in six stage scores of 0 to 5.
(§2) A plastic cup of 30 cm^2 was filled with paddy soil, soil puddling was performed, seeds of Echinochloa oryzicola (barnyard grass), Cyperus difformis (smallflower umbrella plant), Monochoria vaginalis (monochoria), Scirpus juncoides (bulrush), and Eleocharis acicularis (needle spikerush), and Lindernia procumbens (common false pimpernel), Rotala indica (indian toothcup), Elatine triandra (waterwort) as other annual broad leaf weeds were seeded therein, and kept in a submerged state. A wettable powder or an emulsifiable concentrate of the compound of the present invention prepared according to Formulation Example was diluted on the weed seeding day, and a submersing treatment was performed so as to be a predetermined dosage. The herbicidal effect with respect to the test weeds about 15 days after the treatment was evaluated according to the evaluation criteria in six stages of 0 to 5 described above.

[2] = tested on: Eleocharis acicularis (needle spikerush)
Protocol: as §1, §2

[3] = tested on: Monochoria vaginalis (monochoria)
Protocol: as §1, §2

[4] = tested on: other annual broad leaf weeds (Lindernia procumbens, Rotala indica, Elatine triandra)
Protocol: as §1, §2

[5] = tested on: Echinochloa oryzicola (barnyard grass)
Protocol: as §1, §2

[6] = tested on: Scirpus juncoides (bulrush)
Protocol: as §1, §2

SMILES	Herbicidal effect Cyperus difformis [1]	Herbicidal effect Eleocharis acicularis [2]	Herbicidal effect Monochoria vaginalis [3]	Herbicidal effect Broadleaf weed [4]	Herbicidal effect Echinochloa oryzicola [5]	Herbicidal effect Scirpus juncoides [6]
CC(C)(C)OC(=O)COc1cc(-c2c(Cl)n3n(c2=O)CCCC3)c(F)cc1Cl [Example 1-165]	5 (Herbicidal effect/phytotoxicity was 90% or greater)	5 (Herbicidal effect/phytotoxicity was 90% or greater)	5 (Herbicidal effect/phytotoxicity was 90% or greater)	5 (Herbicidal effect/phytotoxicity was 90% or greater)	5 (Herbicidal effect/phytotoxicity was 90% or greater)	5 (Herbicidal effect/phytotoxicity was 90% or greater)
CCOC(=CC(=O)OC(C)C)COc1cc(-c2c(Cl)n3n(c2=O)CCCC3)c(F)cc1Cl [Compound 2-26]	5 (Herbicidal effect/phytotoxicity was 90% or greater)	5 (Herbicidal effect/phytotoxicity was 90% or greater)	5 (Herbicidal effect/phytotoxicity was 90% or greater)	5 (Herbicidal effect/phytotoxicity was 90% or greater)	5 (Herbicidal effect/phytotoxicity was 90% or greater)	5 (Herbicidal effect/phytotoxicity was 90% or greater)
O=c1c(-c2cc(OC3CCCC3)c(F)cc2F)c(Cl)n2n1CCCC2 [Example 1-98]	5 (Herbicidal effect/phytotoxicity was 90% or greater)	5 (Herbicidal effect/phytotoxicity was 90% or greater)	5 (Herbicidal effect/phytotoxicity was 90% or greater)	5 (Herbicidal effect/phytotoxicity was 90% or greater)	5 (Herbicidal effect/phytotoxicity was 90% or greater)	5 (Herbicidal effect/phytotoxicity was 90% or greater)
CC1(COc2cc(-c3c(Cl)n4n(c3=O)CCCC4)c(F)cc2Cl)CC(c2ccccc2F)=NO1 (stereo not drawn) [Compound 4-3]	5 (Herbicidal effect/phytotoxicity was 90% or greater)	5 (Herbicidal effect/phytotoxicity was 90% or greater)	5 (Herbicidal effect/phytotoxicity was 90% or greater)	5 (Herbicidal effect/phytotoxicity was 90% or greater)	5 (Herbicidal effect/phytotoxicity was 90% or greater)	5 (Herbicidal effect/phytotoxicity was 90% or greater)
C=CCOc1ccccc1Oc1cc(-c2c(Cl)n3n(c2=O)CCCC3)c(F)cc1Cl [Compound 3-27]	5 (Herbicidal effect/phytotoxicity was 90% or greater)	5 (Herbicidal effect/phytotoxicity was 90% or greater)	5 (Herbicidal effect/phytotoxicity was 90% or greater)	5 (Herbicidal effect/phytotoxicity was 90% or greater)	5 (Herbicidal effect/phytotoxicity was 90% or greater)	5 (Herbicidal effect/phytotoxicity was 90% or greater)
C=C(C)COc1cc(-c2c(Cl)n3n(c2=O)CCCC3)c(F)cc1F [Example 1-106]	5 (Herbicidal effect/phytotoxicity was 90% or greater)	5 (Herbicidal effect/phytotoxicity was 90% or greater)	5 (Herbicidal effect/phytotoxicity was 90% or greater)	5 (Herbicidal effect/phytotoxicity was 90% or greater)	5 (Herbicidal effect/phytotoxicity was 90% or greater)	5 (Herbicidal effect/phytotoxicity was 90% or greater)
CCOC(=O)C=C(COc1cc(-c2c(Cl)n3n(c2=O)CCCC3)c(F)cc1Cl)OCC (mixture of isomers) [Compound 2-19]	5 (Herbicidal effect/phytotoxicity was 90% or greater)	5 (Herbicidal effect/phytotoxicity was 90% or greater)	5 (Herbicidal effect/phytotoxicity was 90% or greater)	5 (Herbicidal effect/phytotoxicity was 90% or greater)	5 (Herbicidal effect/phytotoxicity was 90% or greater)	5 (Herbicidal effect/phytotoxicity was 90% or greater)
O=c1c(-c2ccc(F)cc2F)c(Cl)n2n1CCCC2 [Example 1-75]	5 (Herbicidal effect/phytotoxicity was 90% or greater)	5 (Herbicidal effect/phytotoxicity was 90% or greater)	5 (Herbicidal effect/phytotoxicity was 90% or greater)	5 (Herbicidal effect/phytotoxicity was 90% or greater)	5 (Herbicidal effect/phytotoxicity was 90% or greater)	5 (Herbicidal effect/phytotoxicity was 90% or greater)
C=CCOc1cc(F)ccc1Oc1cc(-c2c(Cl)n3n(c2=O)CCCC3)c(F)cc1Cl [Compound 3-34]	5 (Herbicidal effect/phytotoxicity was 90% or greater)	5 (Herbicidal effect/phytotoxicity was 90% or greater)	5 (Herbicidal effect/phytotoxicity was 90% or greater)	5 (Herbicidal effect/phytotoxicity was 90% or greater)	5 (Herbicidal effect/phytotoxicity was 90% or greater)	5 (Herbicidal effect/phytotoxicity was 90% or greater)
C=CCOc1ccc(Oc2cc(-c3c(Cl)n4n(c3=O)CCCC4)c(F)cc2Cl)cc1 [Compound 3-29]	5 (Herbicidal effect/phytotoxicity was 90% or greater)	5 (Herbicidal effect/phytotoxicity was 90% or greater)	5 (Herbicidal effect/phytotoxicity was 90% or greater)	5 (Herbicidal effect/phytotoxicity was 90% or greater)	5 (Herbicidal effect/phytotoxicity was 90% or greater)	5 (Herbicidal effect/phytotoxicity was 90% or greater)
C#CCOc1cc(Cl)ccc1Oc1cc(-c2c(Cl)n3n(c2=O)CCCC3)c(F)cc1Cl [Compound 3-39]	5 (Herbicidal effect/phytotoxicity was 90% or greater)	5 (Herbicidal effect/phytotoxicity was 90% or greater)	5 (Herbicidal effect/phytotoxicity was 90% or greater)	5 (Herbicidal effect/phytotoxicity was 90% or greater)	5 (Herbicidal effect/phytotoxicity was 90% or greater)	5 (Herbicidal effect/phytotoxicity was 90% or greater)
N#CCOc1ccc(Oc2cc(-c3c(Cl)n4n(c3=O)CCCC4)c(F)cc2Cl)cc1 [Compound 3-20]	5 (Herbicidal effect/phytotoxicity was 90% or greater)	5 (Herbicidal effect/phytotoxicity was 90% or greater)	5 (Herbicidal effect/phytotoxicity was 90% or greater)	5 (Herbicidal effect/phytotoxicity was 90% or greater)	5 (Herbicidal effect/phytotoxicity was 90% or greater)	5 (Herbicidal effect/phytotoxicity was 90% or greater)
